Columns and labels:
Assay in all cases: relative viability (nuclei count vs DMSO), 5 days (fraction); higher = more cells survive
KIN001-266 + Linsitinib = compound: CCN1CCC(CC1)N2C=C(N=N2)CNC3=CC4=C(C(=CN=C4C(=C3)Cl)C#N)NC5=CC(=C(C=C5)F)Cl [KIN001-266] + C[C@]1(O)C[C@@H](c2nc(-c3ccc4ccc(-c5ccccc5)nc4c3)c3c(N)nccn32)C1 [Linsitinib] (partner 1 µM)
Method in brief: (§1)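 A single step with final 0.05% Triton X-100, 1% formaldehyde and 1 ug/ml Hoechst fixed the cells and stained nuclei 5 days after treatment. Lung cancer cell lines in 1536-well plates had been treated by pin tool the day after seeding with one drug alone or a fixed anchor-drug dose plus five library-drug doses (not always all listed) in √10 steps, and nuclei were counted on 4× images. Relative viability is the ratio of nuclei in treated wells to nuclei in vehicle wells, taken as the median of duplicate plates.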

KIN001-266 + Pictilisib = compound: CCN1CCC(CC1)N2C=C(N=N2)CNC3=CC4=C(C(=CN=C4C(=C3)Cl)C#N)NC5=CC(=C(C=C5)F)Cl [KIN001-266] + CS(=O)(=O)N1CCN(Cc2cc3nc(-c4cccc5[nH]ncc45)nc(N4CCOCC4)c3s2)CC1 [Pictilisib] (partner 1 µM)
Method in brief: as §1

KIN001-266 + Alpelisib = compound: CCN1CCC(CC1)N2C=C(N=N2)CNC3=CC4=C(C(=CN=C4C(=C3)Cl)C#N)NC5=CC(=C(C=C5)F)Cl [KIN001-266] + Cc1nc(NC(=O)N2CCC[C@H]2C(N)=O)sc1-c1ccnc(C(C)(C)C(F)(F)F)c1 [Alpelisib] (partner 2 µM)
Method in brief: as §1

KIN001-266 + Decitabine = compound: CCN1CCC(CC1)N2C=C(N=N2)CNC3=CC4=C(C(=CN=C4C(=C3)Cl)C#N)NC5=CC(=C(C=C5)F)Cl [KIN001-266] + Nc1ncn([C@H]2C[C@H](O)[C@@H](CO)O2)c(=O)n1 [Decitabine] (partner 2 µM)
Method in brief: as §1

Cell Line	relative viability (KIN001-266 + Linsitinib; first compound 0.08 µM)	relative viability (KIN001-266 + Linsitinib; first compound 0.253 µM)	relative viability (KIN001-266 + Linsitinib; first compound 0.8 µM)	relative viability (KIN001-266 + Linsitinib; first compound 2.53 µM)	relative viability (KIN001-266 + Linsitinib; first compound 8 µM)	relative viability (KIN001-266 + Pictilisib; first compound 0.08 µM)	relative viability (KIN001-266 + Pictilisib; first compound 0.253 µM)	relative viability (KIN001-266 + Pictilisib; first compound 0.8 µM)	relative viability (KIN001-266 + Pictilisib; first compound 2.53 µM)	relative viability (KIN001-266 + Pictilisib; first compound 8 µM)	relative viability (KIN001-266 + Alpelisib; first compound 0.08 µM)	relative viability (KIN001-266 + Alpelisib; first compound 0.253 µM)	relative viability (KIN001-266 + Alpelisib; first compound 0.8 µM)	relative viability (KIN001-266 + Alpelisib; first compound 2.53 µM)	relative viability (KIN001-266 + Alpelisib; first compound 8 µM)	relative viability (KIN001-266 + Decitabine; first compound 0.08 µM)	relative viability (KIN001-266 + Decitabine; first compound 0.253 µM)	relative viability (KIN001-266 + Decitabine; first compound 0.8 µM)	relative viability (KIN001-266 + Decitabine; first compound 2.53 µM)	relative viability (KIN001-266 + Decitabine; first compound 8 µM)
COR-L 105	0.974	0.932	0.991	0.93	0.846	0.422	0.44	0.352	0.452	0.43	1.15	0.859	1.14	0.9	0.896	0.584	0.661	0.641	0.725	0.677
LK-2	0.583	0.603	0.64	0.516	0.655	0.563		0.537		0.551	1.3		1.17		1.11	0.384	0.298	0.309	0.318	0.41
NCI-H727	0.296	0.283	0.237	0.284	0.333	0.389	0.351	0.327	0.264	0.304	0.585	0.567	0.622	0.597	0.329	0.9	0.954	0.744	0.755	0.643
RERF-LC-KJ	0.947	0.857	0.917	0.846	0.656	0.537	0.554	0.516	0.635	0.315	0.863	0.785	0.856	0.832	0.569	0.744	0.777	0.767	0.64	0.497
NCI-H2023	0.696	0.706	0.696	0.617	0.481	0.242	0.293	0.267	0.259	0.232	0.672	0.64	0.588	0.598	0.618	0.21	0.217	0.217	0.216	0.289
NCI-H322M	0.957	0.987	0.897	0.855	0.83	0.593	0.713	0.451	0.456	0.484	0.648	0.87	0.8	0.694	0.689	0.733	0.745	0.74	0.648	0.672
NCI-H1666	1.02	0.861	0.869	0.825	0.674	0.608	0.523	0.49	0.367	0.347	0.985	0.999	0.901	0.887	0.696	0.806	0.737	0.662	0.725	0.754
NCI-H1648																0.487	0.497	0.501	0.507	0.517
NCI-H2087	0.924	0.95	0.963	0.791	0.599	1.02	0.934	0.71	0.868	0.554	1.06	1.02	1.04	1.06	0.758	0.29	0.288	0.257	0.299	0.258
LU99A	0.635	0.564	0.496	0.401	0.467	0.325	0.338	0.319	0.3	0.284	0.66	0.606	0.442	0.438	0.442	0.976	1.01	0.9	0.613	0.607
HCC-366	0.547	0.607	0.821	0.476	0.545	0.132	0.114	0.107	0.154	0.156	0.495	0.492	0.583	0.374	0.364	0.359	0.362	0.221	0.346	0.317
EKVX	1.01	0.956	1.04	0.963	1.04	0.386	0.417	0.425	0.405	0.4	0.871	0.817	0.83	0.807	0.877	0.364	0.422	0.368	0.364	0.358
NCI-H522																0.651	0.609	0.777	0.702	0.678
NCI-H1755	1	0.973	0.965	0.955	0.844	0.463	0.447	0.387	0.458	0.398	1	0.895	0.95	0.843	0.816	0.67	0.735	0.647	0.654	0.707
NCI-H647	1.31	1.03	1.26	1.13	1.03	0.461	0.405	0.491	0.282	0.414	1.29	1.3	1.11	1.11	0.928	0.4	0.385	0.344	0.357	0.336
LC-2-ad	0.879	0.842	0.924	0.808	0.873	0.582	0.336	0.466	0.317	0.543	0.897	0.776	0.918	0.783	0.869	0.802	0.794	0.676	0.733	0.771
NCI-H1793	0.806	0.829	0.75	0.879	1.03	0.287	0.332	0.305	0.253	0.322	0.829	0.624	0.822	0.897	0.572	0.574	0.463		0.476	0.364
